Experimental findings from patent US12201627B2, “NLRP3 modulators” (Innate Tumor Immunity, Inc., priority 2018, dated 2025) are described below.

For experiment [1], the target named is T1, NLRP3 (Homo sapiens, UniProt Q96P20).
T1 construct: host or cells: PMA-differentiated THP-1 cells
Put plainly: Measurement of IL-1β production in PMA-differentiated THP-1 cells (NLRP3 hIL1B). The note with it: read-out: NLRP3 hILIB IC50. It is filed as cell-based. The protocol:
Measurement of IL-1β Production in PMA-Differentiated THP-1 Cells
THP-1 cells were purchased from the American Type Culture Collection and sub-cultured according to instructions from the supplier. Prior to experiments, cells were cultured in RPMI 1640 containing 10% heat inactivated FBS, penicillin (100 units/ml) and streptomycin (100 μg/ml), and maintained in log phase prior to experimental setup. Prior to the experiment THP-1 were treated with PMA (Phorbol 12-myristate 13-acetate) ([…]) for 24 hours. The day of the experiment the media was removed and attaching cells were treated with trypsin for 2 minutes, cells were then collected, washed with PBS (phosphate buffer saline), spin down, resuspended in 2% heat inactivated FBS with RPMI at a concentration of 1×10^6 cells/ml, and 100 μl was plated in a 96 well plate. Compounds were dissolved in dimethyl sulfoxide (DMSO) and added to the culture medium to achieve desired concentration (e.g. 100, 30, 10, 3, 1, 0.3 or 0.1 μM). Cells were incubated with compounds for 4 hours. Cell free supernatant was collected and the production of IL-1β was evaluated by ELISA. A vehicle only control was run concurrently with each experiment. Final DMSO concentration was 1%.
Measurement of IL-1β Production in PMA-Differentiated THP-1 Cells (Alternative Procedure)
THP-1 cells were purchased from the American Type Culture Collection and sub-cultured according to instructions from the supplier. Prior to experiments, cells were cultured in RPMI 1640 containing 10% heat inactivated FBS, penicillin (100 units/ml), streptomycin (100 μg/ml), HEPES (10 mM) and sodium pyruvate (1 mM) and maintained in log phase prior to experimental setup. Prior to the experiment, THP-1 cells were treated with PMA (Phorbol 12-myristate 13-acetate) (20 μg/ml) overnight. The day of the experiment, the media was removed and attached cells were treated with trypsin for 2 minutes, cells were then collected, washed with PBS (phosphate buffer saline), pelleted by centrifugation and resuspended in 2% heat inactivated FBS with RPMI at a concentration of 50,000 cells/well in a 384 well plate. Cell free supernatant was collected and the production of IL-1β was evaluated by ELISA. Compounds were dissolved in dimethyl sulfoxide (DMSO) and added to the culture medium to achieve desired concentration (e.g. 100, 30, 10, 3, 1, 0.3 or 0.1 μM). Cells were incubated with compounds for 2 hours. A vehicle only control was run concurrently with each experiment. Final DMSO concentration was 1%.
Measurement of IL-1β Production—hTRF Protocol (Second Alternative Procedure)
Serial dilutions of compounds in DMSO were added to low volume 384 well plates at 100 nl/well using an ECHO 550 acoustic dispenser (Labcyte) to achieve final starting concentration of 10 μM in assay.
THP-1 cells in RPMI (Gibco, 11875) media with 10% FBS at a density of 1×10^6 cell/ml in a T175 flask were treated with a final concentration of phorbol 12-myristate 13-acetate (PMA) (Sigma, P1585) of 50 ng/ml overnight at 37° C. at 5% CO2 for differentiation. Cells were harvested the next day after rinsing well with dPBS using 0.5% trypsin. A cell solution was prepared of 1×10^6 cells/ml for 50,000 cells in 50 μl/well in RPMI media with 2% FBS. Cells were plated using a multichannel pipette onto the compound dilutions in Greiner, 384 well, black clear bottom tissue culture treated plates (781090). The plates were incubated in 37° C. incubator at 5% CO2 for 2 hours.
After the 2 hour incubation, the cell plates were spun in the centrifuge for 5 minutes at 1200 rpm. Using the Felix (CyBio), 8 μl of the supernatant was transferred to 384 well, low volume, white proxy plates. (Perkin Elmer, 6008230). A human IL1beta hTRF kit was used to analyze the supernatant (CISBIO, 62HIL1BPEG). The kit instructions were followed for preparing the IL1Beta standard curve and then the antibodies from the kit were diluted 1:40 rather than 1:20 as kit instructed. […]

Experiment [2] deals with T2, human TLR8 (Homo sapiens, UniProt Q9NR97).
T2 construct: host or cells: HEK-Blue cells (human HEK) co-expressing TLR8 and an NF-kB/AP1-inducible SEAP reporter
T2 sequence (Q9NR97 27-1041): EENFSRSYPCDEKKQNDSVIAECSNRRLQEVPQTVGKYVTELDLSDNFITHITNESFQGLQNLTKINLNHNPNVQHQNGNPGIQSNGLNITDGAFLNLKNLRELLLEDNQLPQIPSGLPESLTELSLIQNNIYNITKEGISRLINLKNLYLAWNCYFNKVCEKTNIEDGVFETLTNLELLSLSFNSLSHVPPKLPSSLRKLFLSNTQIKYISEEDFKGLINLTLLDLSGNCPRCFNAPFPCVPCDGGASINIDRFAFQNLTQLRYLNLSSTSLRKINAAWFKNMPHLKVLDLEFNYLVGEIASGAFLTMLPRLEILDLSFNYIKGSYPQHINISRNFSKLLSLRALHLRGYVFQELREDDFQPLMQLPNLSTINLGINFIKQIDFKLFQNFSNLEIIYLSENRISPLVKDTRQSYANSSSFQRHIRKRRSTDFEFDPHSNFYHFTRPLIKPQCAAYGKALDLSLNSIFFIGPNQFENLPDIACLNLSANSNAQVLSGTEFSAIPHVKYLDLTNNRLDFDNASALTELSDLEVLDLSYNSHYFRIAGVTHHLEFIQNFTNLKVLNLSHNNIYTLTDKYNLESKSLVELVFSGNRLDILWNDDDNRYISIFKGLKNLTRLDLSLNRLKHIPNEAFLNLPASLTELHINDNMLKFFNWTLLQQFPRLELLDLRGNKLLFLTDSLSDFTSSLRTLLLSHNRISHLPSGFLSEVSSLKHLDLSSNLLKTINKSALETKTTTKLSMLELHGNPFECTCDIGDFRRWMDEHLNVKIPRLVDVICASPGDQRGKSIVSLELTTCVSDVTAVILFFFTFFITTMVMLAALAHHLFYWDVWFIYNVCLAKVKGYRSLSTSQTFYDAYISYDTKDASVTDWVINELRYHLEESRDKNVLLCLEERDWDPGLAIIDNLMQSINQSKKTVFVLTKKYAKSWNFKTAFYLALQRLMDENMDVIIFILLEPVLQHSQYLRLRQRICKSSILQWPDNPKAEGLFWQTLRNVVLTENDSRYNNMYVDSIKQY
Put plainly: In vitro human TLR8 reporter assay (HEK-Blue cells, NF-kB/AP1-inducible SEAP). To be noted: HEK-Blue cells expressing TLR8, SEAP reporter; read-out: TLR8 Agonist EC50. The format is cell-based. On the procedure: In Vitro Human TLR7 and TLR8 Binding Reporter Assays
Logarithmically-growing human HEK-Blue cells co-expressing a TLR7 or TLR8 gene and a NF-kB/AP1-inducible SEAP (secreted embryonic alkaline phosphatase; Invivogen, San Diego, Calif.) reporter gene are added to individual wells of a 384-well plate (15,000 cells per 20 μL per well) and maintained for 24 h at 37° C., 5% CO2. Test compounds or DMSO are distributed to separate wells the next day using acoustic liquid handling technology (100 nL per well) and cells are subsequently incubated for 18 h at 37° C., 5% CO2. Cellular SEAP production is measured using an Envision plate reader instrument thirty minutes after adding freshly-made Quanti-Blue reagent (prepared by following manufacturer instructions; Invivogen, San Diego, Calif.) to the HEK-Blue TLR Nf-kB-SEAP cell reactions. All EC50 values (half-maximal effective concentration) are determined using proprietary data analysis software. Normalized EC50 value=absolute value determined by setting 100% Ymax using a reference standard RLU (relative light unit) values from cells treated with 50 μM of the reference standard.
(In general: In a reporter assay the amount or activity of a reporter protein is the signal.)

T1 sequence (Q96P20 whole entry): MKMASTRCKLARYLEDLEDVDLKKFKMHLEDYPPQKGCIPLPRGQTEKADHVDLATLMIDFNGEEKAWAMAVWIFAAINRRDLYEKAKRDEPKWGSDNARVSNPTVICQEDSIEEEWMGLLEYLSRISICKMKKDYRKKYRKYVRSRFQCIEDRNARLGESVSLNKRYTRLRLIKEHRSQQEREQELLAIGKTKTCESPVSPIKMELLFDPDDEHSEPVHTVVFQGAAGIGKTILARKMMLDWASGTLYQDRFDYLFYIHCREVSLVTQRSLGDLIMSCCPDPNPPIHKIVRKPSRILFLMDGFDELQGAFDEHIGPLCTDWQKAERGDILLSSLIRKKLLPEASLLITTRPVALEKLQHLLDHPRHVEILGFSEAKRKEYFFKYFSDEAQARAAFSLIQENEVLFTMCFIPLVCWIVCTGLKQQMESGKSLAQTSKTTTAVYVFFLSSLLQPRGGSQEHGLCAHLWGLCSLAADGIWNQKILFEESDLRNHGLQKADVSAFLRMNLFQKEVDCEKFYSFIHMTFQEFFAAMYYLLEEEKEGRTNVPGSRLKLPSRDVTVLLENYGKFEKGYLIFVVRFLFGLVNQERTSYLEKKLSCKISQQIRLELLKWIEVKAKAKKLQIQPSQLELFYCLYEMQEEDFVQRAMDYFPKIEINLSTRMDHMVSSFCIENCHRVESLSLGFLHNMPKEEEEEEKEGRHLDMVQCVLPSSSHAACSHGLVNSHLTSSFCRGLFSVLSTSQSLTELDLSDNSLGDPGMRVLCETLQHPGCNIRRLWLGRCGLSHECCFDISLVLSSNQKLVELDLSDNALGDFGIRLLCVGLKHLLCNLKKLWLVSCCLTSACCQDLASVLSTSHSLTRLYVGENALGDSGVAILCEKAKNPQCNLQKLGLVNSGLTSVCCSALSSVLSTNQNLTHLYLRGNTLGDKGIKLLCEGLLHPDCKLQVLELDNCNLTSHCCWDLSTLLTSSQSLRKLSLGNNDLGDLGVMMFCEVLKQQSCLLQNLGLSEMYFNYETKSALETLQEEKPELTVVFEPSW

As a reminder, the IC50 is the midpoint of a concentration-inhibition curve. With `CC(C)n1c(CN2CC(C)(O)C2)nc2c(N)nc3cc(-c4cc[nH]n4)ccc3c21` [Example 15], the half-inhibitory concentration (IC50) in experiment [1] was determined as 1100 nM.
With `CC1(O)CN(Cc2nc3c(N)nc4cc(-c5cc[nH]n5)ccc4c3n2C2CCC2)C1` [Example 17], the IC50 in experiment [1] stood at 2200 nM.
As for `Nc1nc2cc(-c3cc[nH]n3)ccc2c2c1nc(CN1CC(F)C1)n2C1CCC1` [Example 6], the concentration for half-maximal inhibition (IC50) in experiment [1] is 260 nM.
As for `Nc1nc2cc(-c3cc[nH]n3)ccc2c2c1nc(CN1CCC1)n2C1CC1` [Example 4], the IC50 in experiment [1] turned out to be 180 nM.
Turning to `Nc1nc2cc(-c3cc[nH]n3)ccc2c2c1nc(CN1CC3(CCCO3)C1)n2C1CC1` [Example 14], the IC50 in experiment [1] was 1610 nM.
Take `Nc1nc2cc(-c3cc[nH]n3)ccc2c2c1nc(CN1CC(O)C1)n2C1CC1` [Example 16]: the IC50 in experiment [1] worked out at 4800 nM.
Consider `Nc1nc2cc(-c3cc[nH]n3)ccc2c2c1nc(CN1CC(F)C1)n2C1CC1` [Example 10], for which, in experiment [1], the concentration for half-maximal inhibition (IC50) came out at 250 nM.
One may read the EC50 as the concentration needed to bring the measured effect to its halfway point. With `Nc1nc2cc(-c3cc[nH]n3)ccc2c2c1nc(CN1CC(F)(F)C1)n2CC(F)F` [Example 2], the EC50 in experiment [2] is 1000 to 20000 nM. In addition, the IC50 in experiment [1] worked out at 80 nM.
Take `COC1CN(Cc2nc3c(N)nc4cc(-c5cc[nH]n5)ccc4c3n2C2CC2)C1` [Example 5]: in experiment [1], the IC50 came out at 270 nM.
Turning to `Nc1nc2cc(-c3cc[nH]n3)ccc2c2c1nc(CN1CC(F)(F)C1)n2C1CCC1` [Example 8], in experiment [1], the IC50 was 200 nM.
Turning to `Nc1nc2cc(-c3cc[nH]n3)ccc2c2c1nc(CN1CC3(CCCO3)C1)n2C1CCC1` [Example 11], in experiment [1], the IC50 stood at 240 nM.
Consider `COC1CN(Cc2nc3c(N)nc4cc(-c5cc[nH]n5)ccc4c3n2CC(F)F)C1` [Example 7], for which the IC50 in experiment [1] stood at 220 nM.
On to `COC1CN(Cc2nc3c(N)nc4cc(-c5cc[nH]n5)ccc4c3n2C2CCC2)C1` [Example 1, 1-cyclobutyl-2-[(3-methoxyazetidin-1-yl)methyl]-7-(1H-pyrazol-5-yl)-1H-imidazo[4,5-c]quinolin-4-amine], for which the half-inhibitory concentration (IC50) in experiment [1] came out at 120 nM.
Consider `CC(C)n1c(CN2CC(C#N)C2)nc2c(N)nc3cc(-c4cc[nH]n4)ccc3c21` [Example 13], for which the IC50 in experiment [1] was 630 nM.
Consider `Nc1nc2cc(-c3cc[nH]n3)ccc2c2c1nc(CN1CC(F)C1)n2CC(F)F` [Example 3], for which the 50% inhibitory concentration (IC50) in experiment [1] turned out to be 220 nM.
On to `N#CC1CN(Cc2nc3c(N)nc4cc(-c5cc[nH]n5)ccc4c3n2C2CC2)C1` [Example 12], for which the IC50 in experiment [1] is 2000 nM.
